Measurements from patent US9447075B2, “Pyridazine derivatives as EAAT2 activators” (The Brigham and Women's Hospital, Inc., priority 2011, dated 2016).

Experiments:
[1] = Maximum tolerated dose / tolerability study; assay type: in vivo; conditions: male, C57BL/6, mouse, in vivo, ip; five-day repeat-dose i.p., highest dose tested; read-out: 5-day no observed adverse effect level (NOAEL)
Experimental: (§1) We determined maximum tolerated dose (MTD) of Compound 212320 in male C57BL/6 mice. The study was conducted in two phases: (I) a single dose tolerability study tested at the doses of 10, 25, 50, and 75 mg/kg i.p. (3 mice/dose) and (II) a five-day repeat-dose tolerability study tested at the doses of 10, 25, 50, and 100 mg/kg i.p. (5 mice/dose). […] In the repeat-dose study, body weights were determined prior to each dose and prior to termination on day 6. Clinical pathologies including standard hematology, serum chemistry and coagulation parameters were evaluated on samples collected on day 6. All animals from phase II were necropsied, and selected organs were weighed. […] Due to lack of toxicity, the highest dose tested, 100 mg/kg/day, was determined to be the 5-day no observed adverse effect level (NOAEL) for Compound 212320.

male C57BL/6 mice = assay: Maximum tolerated dose / tolerability study; assay type: in vivo; conditions: single dose 10-75 mg/kg and five-day repeat dose 10-100 mg/kg i.p.
Experimental: as §1

SOD1(G93A) mice = assay: ALS model (SOD1(G93A) mouse model); assay type: in vivo
From the text: Guidelines established by the ENMC Group were followed (see Ludolph, A. C., et al. Guidelines for the preclinical in vivo evaluation of pharmacological active drugs for ALS/MND: report on the 142nd ENMC international workshop. Amyotroph Lateral Scler 8, 217-223 (2007))^1, which included the use of gender matched mice (i.e. equal number of males and females in each experimental group), use of littermate matched mice (i.e. the littermate of a therapeutic mouse is used in the control group) and use of mice with the same copy number of the SOD1 transgene. SOD1(G93A) mice received Compound 212320 (shown below, shown also as compound 7-4 in FIG. 1) at 40 mg/kg in 500 μl of 1% DMSO/1% polyethylene glycol 400/0.2% Tween 80/10% hydroxypropyl-β-cyclodextrin/saline starting at 84 days of age (6 times/week, at the same time each day) until death or harvested at 120-days of age for analysis. Western blotting, cresyl violet staining and immunofluorescence staining were performed as previously described in Chang, Y., et al. Messenger RNA oxidation occurs early in disease pathogenesis and promotes motor neuron degeneration in ALS. PLoS One 3, e2849 (2008).
Motor function was determined by measuring peak force using a digital grip dynamometer outfitted with a hind limb pull bar assembly (Columbus Instruments). Measurements started from 70 days of age (three times a week, on the same day of each week and at the same time of each scheduled day) until the mouse loses all strength. Six repetitions were conducted and the average was determined for each point. The examiners were unaware of the treatment of the mice. Food and water were placed on the cage floor when mice began to show motor deficits. […] This time point was recorded as the time of death for survival in days.
Referring to FIG. 2, Compound 212320 delayed motor function decline and extended life span in SOD1(G93A) mice. […] Data were analyzed using the dynamic fitting nonlinear regression analysis. […] Data were analyzed using Kaplan-Meier survival analysis. […] Spinal cords from 120-day-old mice were analyzed.

[2] = test system: male C57/BL6 mice, focal cerebral ischemia; assay: Stroke model, transient middle cerebral artery occlusion (MCAO); assay type: in vivo, mouse; conditions: 24 hours after surgery
Experimental: Compound 212320 was evaluated in the transient middle cerebral artery occlusion (MCAO), a well-characterized model of focal cerebral ischemia (experimental stroke). Adult male C57/BL6 mice (60-70 days old) were used. The internal carotid artery was occluded for 60 min. Following reperfusion, mice received 40 mg/kg of Compound 212320 by intraperitoneal injection. 24 hours after surgery, brains were removed and processed to determine infarct volume.
Mice received 40 mg/kg Compound 212320 or vehicle intraperitoneally and 24 h after stroke, brains were processed to measure infarct volume.

EAAT2 [3] = assay: EAAT2 protein levels in PA-EAAT2 cells by Western blot; assay type: cell-based, human
Experimental: All of the derivates of 1 were initially evaluated in PA-EAAT2 cells^3 (a primary astrocyte line stably expressing EAAT2 mRNAs) following compound (10 μM) incubation for 4 and 24 h before harvesting and measuring EAAT2 levels by Western blot analysis. The fold increases in EAAT2 protein levels relative to DMSO controls are reported (Tables 1-4).
Characterization and efficacy studies of a compound, Compound 212320 (FIG. 6A) is shown. […] In the absence of serum, PA-EAAT2 cells express low amounts of EAAT2 protein, although the recombinant EAAT2 mRNA are expressed (translational silencing); however, EAAT2 protein levels are increased when an activator is added to the culture (translational activation). This cell line was used for high-throughput screening to identify EAAT2 translational activators. To prioritize candidate compounds, we initially evaluated activation of EAAT2 protein in PA-EAAT2 cells. Promising compounds were further evaluated in primary dissociated neuron and astrocyte mixed cultures and then in mice. FIG. 6 presents the characterization of Compound 212320 in PA-EAAT2 cells. Compound 212320 increased EAAT2 protein levels in a dose—(FIG. 6B) and time—(FIG. 6C) dependent manner. Importantly, the induction occurred in a short amount of time (within 1-2 hr) and was sustained even up to 72 hr (data not show). Additionally, induction occurred at low nanomolar concentrations. […] (FIG. 6D).

[4] = test system: primary dissociated neuron and astrocyte mixed cultures; assay: Glutamate-induced excitotoxicity in primary neuron and astrocyte mixed cultures (LDH assay, MAP2 immunostaining); assay type: cell-based; conditions: for MAP2-positive neurons left compared to the control: 0.1 mM glutamate
EAAT2 [5] = assay: EAAT2 protein levels and glutamate uptake in primary dissociated neuron and astrocyte mixed cultures; assay type: cell-based; conditions: seven day-old mixed cultures, serum-free media, 48 hr
Experimental: We next evaluated Compound 212320 in primary dissociated neuron and astrocyte mixed cultures. Seven day-old cultures were treated with Compound 212320 in serum-free media for 48 hr. As shown in FIG. 7A-B, Compound 212320 increased EAAT2 protein levels and glutamate uptake function.

[6] = i.p., 40 mg/kg daily from 84 days of age

Structure (SMILES): Cc1ccccc1CSc1ccc(-c2ccccn2)nn1 [Compound 7-4]
- NOAEL at 5 day [1]: 100 mg/kg/day
- Clinical signs of toxicity, clinical pathology, body weight (male C57BL/6 mice): no clinical signs of toxicity
- EAAT2 protein levels in spinal cord (western blot) (SOD1(G93A) mice; 120-day-old mice): restores
- Life span (survival) (SOD1(G93A) mice; [6]): extended
- Motor function decline (grip strength) (SOD1(G93A) mice; [6]): delayed
- Decrease of infarct volume ([2]; 40 mg/kg i.p. following reperfusion, vs vehicle): 57%
- Infarct volume ([2]; 40 mg/kg i.p., n=6): 6.8±1.6
- Concentrations at which EAAT2 induction occurred (EAAT2 [3]; PA-EAAT2 cells): low nanomolar
- Time in which EAAT2 induction occurred (EAAT2 [3]; PA-EAAT2 cells): 1 to 2 h
- Time up to which EAAT2 induction was sustained (EAAT2 [3]; PA-EAAT2 cells, data not shown): up to 72 hr
- EAAT2 protein levels (EAAT2 [3]; PA-EAAT2 cells, dose- and time-dependent manner (FIG. 6B, 6C)): increased
- Fold increase for EAAT2, 4 h (EAAT2 [3]; compound 10 μM, 4 h incubation, PA-EAAT2 cells, relative to DMSO controls, na = not active): 1.7 ± 0.1 fold
- Fold increase for EAAT2, 24 h (EAAT2 [3]; compound 10 μM, 24 h incubation, PA-EAAT2 cells, relative to DMSO controls, na = not active): 3.5 ± 0.3 fold
- SAR comparison of activity on EAAT2 protein levels, in words (EAAT2 [3]; relative to parent/comparator analogue, Tables 1-4): increased potency
- Neuronal loss and degeneration (MAP2 immunostaining) ([4]; FIG. 7D): significantly prevented
- Toxicity in all assays ([4]; cell culture assays): did not cause any detectable toxicity
- Glutamate-induced cytotoxicity (LDH assay) ([4]; glutamate for 2 hr (FIG. 7C)): significantly reduced
- MAP2-positive neurons left compared to the control ([4]; pretreatment at 2 μM): 40.4±6.4%
- MAP2-positive neurons left compared to the control ([4]; pretreatment at 3 μM): 60.9±7.3%
- Protective effects after pretreatment with dihydrokainic acid (DHK), an EAAT2 blocker ([4]; with DHK pretreatment): partially abolished
- EAAT2 protein levels (EAAT2 [5]): increased
- Glutamate uptake function (EAAT2 [5]): increased
